Results as given in the NIST ThermoML archive (doi:10.1016/j.fluid.2005.11.015).
± gives the expanded uncertainty stated by the source.

Conditions: Crystal; visual observation

- Normal melting temperature: 67.0 ± 2 °C
SMILES: CCCCn1cc[n+](C)c1.[Cl-] [1-butyl-3-methylimidazolium chloride]
